Tests used:
[1] = tested on: C57B16/J mice given a high fat diet; test: Determination of liver lipids in mice fed a high fat diet (Oil Red O staining); type: in vivo, mouse; settings: high fat diet (60% fat) three weeks; for fatty liver compared to the controls: 60 mg/kg/day in the food
Protocol: C57B16/J mice (n=8 per group) were given a high fat diet (60% fat) for three weeks and then sacrificed. Livers were collected and weighed. Liver slices were prepared and analysed for lipid levels by Oil Red 0 staining (FIGS. 1 and 3). One group of mice received Compound 1 mixed in the food (60 mg/kg/day) whilst another group of mice received vehicle mixed in the food. […] Compound 1 has GR antagonist activity and some MR antagonist activity.

[2] = molecular target: T1, glucocorticoid receptor (GR) (Homo sapiens, UniProt P04150); test: GR reporter gene assay using SW1353/MMTV-5 cells; type: cell-based
T1 construct: contains endogenous glucocorticoid receptors; endogenous in cells; host or cells: SW1353/MMTV-5 (human chondrosarcoma, stably transfected with pMAMneo-Luc reporter)
T1 sequence (P04150 1-777): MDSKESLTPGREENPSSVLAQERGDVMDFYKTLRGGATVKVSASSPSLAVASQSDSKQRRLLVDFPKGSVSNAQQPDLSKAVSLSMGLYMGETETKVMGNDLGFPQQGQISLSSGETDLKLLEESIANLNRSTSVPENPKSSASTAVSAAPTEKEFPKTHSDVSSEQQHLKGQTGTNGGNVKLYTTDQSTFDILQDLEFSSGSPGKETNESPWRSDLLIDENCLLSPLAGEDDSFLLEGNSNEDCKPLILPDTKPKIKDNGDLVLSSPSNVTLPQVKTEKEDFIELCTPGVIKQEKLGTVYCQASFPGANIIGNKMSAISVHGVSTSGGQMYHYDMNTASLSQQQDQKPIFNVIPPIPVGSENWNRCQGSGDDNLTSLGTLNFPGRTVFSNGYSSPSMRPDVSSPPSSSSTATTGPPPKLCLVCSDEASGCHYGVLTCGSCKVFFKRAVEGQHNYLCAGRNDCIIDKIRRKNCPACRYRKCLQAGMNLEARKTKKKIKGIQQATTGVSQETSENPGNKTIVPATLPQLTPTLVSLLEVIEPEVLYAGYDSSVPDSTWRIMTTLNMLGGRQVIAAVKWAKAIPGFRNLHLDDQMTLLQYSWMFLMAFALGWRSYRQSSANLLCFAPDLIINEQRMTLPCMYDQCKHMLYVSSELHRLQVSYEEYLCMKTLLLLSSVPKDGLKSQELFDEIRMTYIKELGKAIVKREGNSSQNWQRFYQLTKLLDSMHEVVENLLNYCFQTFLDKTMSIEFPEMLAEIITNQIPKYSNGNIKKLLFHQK
Protocol: SW1353/MMTV-5 is an adherent human chondrosarcoma cell line that contains endogenous glucocorticoid receptors. It was transfected with a plasmid (pMAMneo-Luc) encoding firefly luciferase located behind a glucocorticoid-responsive element (GRE) derived from a viral promoter (long terminal repeat of mouse mammary tumor virus). A stable cell line SW1353/MMTV-5 was selected with geneticin, which was required to maintain this plasmid.
SW1353/MMTV-5 cells were distributed in 96-well plates and incubated in medium (without geneticin) for 24 hrs.

[3] = molecular target: T2, mineralocorticoid receptor (MR) (Homo sapiens, UniProt P08235); test: MR reporter gene assay using T47D/MMTV-5 cells; type: cell-based
T2 construct: containing endogenous mineralocorticoid and progesterone receptors (PR); endogenous in cells; host or cells: T47D/MMTV-5 (human breast carcinoma, stably transfected with pMAMneo-Luc reporter)
T2 sequence (P08235 1-984): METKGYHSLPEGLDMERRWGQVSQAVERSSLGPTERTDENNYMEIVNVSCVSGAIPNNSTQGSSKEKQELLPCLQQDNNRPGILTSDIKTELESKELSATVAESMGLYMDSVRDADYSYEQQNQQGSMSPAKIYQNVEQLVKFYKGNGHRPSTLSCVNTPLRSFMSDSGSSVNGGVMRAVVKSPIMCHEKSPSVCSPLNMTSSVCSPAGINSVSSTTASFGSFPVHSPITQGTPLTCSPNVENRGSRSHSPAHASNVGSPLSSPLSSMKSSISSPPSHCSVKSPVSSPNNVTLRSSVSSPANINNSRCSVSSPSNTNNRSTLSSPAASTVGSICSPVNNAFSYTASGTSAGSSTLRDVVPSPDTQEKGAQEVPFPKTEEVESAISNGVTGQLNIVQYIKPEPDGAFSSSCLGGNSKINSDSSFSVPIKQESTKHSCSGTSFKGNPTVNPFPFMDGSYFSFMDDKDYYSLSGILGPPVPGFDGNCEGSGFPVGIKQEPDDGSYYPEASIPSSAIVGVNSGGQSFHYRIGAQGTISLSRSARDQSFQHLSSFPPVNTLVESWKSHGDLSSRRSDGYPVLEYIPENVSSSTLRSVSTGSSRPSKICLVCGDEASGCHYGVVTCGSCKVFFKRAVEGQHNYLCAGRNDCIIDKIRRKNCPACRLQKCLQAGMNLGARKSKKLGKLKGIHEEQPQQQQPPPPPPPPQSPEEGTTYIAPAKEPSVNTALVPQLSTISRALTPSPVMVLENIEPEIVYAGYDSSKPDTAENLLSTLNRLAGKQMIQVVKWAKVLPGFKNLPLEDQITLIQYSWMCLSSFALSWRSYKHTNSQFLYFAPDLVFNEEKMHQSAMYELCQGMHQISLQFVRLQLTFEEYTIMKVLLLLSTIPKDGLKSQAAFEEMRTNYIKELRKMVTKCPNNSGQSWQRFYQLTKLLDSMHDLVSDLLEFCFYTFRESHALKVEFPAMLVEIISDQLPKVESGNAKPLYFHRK
Protocol: (§1) As described for the SW1353 cell line above, T47D cells were transfected with the same pMAMneo-Luc plasmid, and stable lines were selected with geneticin.
(§2) T47D/MMTV-5 calls were distributed in 96-well plates (100 μl) in RPMI640 medium+10% charcoal stripped FCS. The cells were incubated for 24 hours in a CO2 oven.

[4] = molecular target: T3, progesterone receptor (PR) (Homo sapiens, UniProt P06401); test: PR reporter gene assay using T47D/MMTV-5 cells; type: cell-based; settings: antagonist mode, 50 nM progesterone
T3 construct: containing endogenous mineralocorticoid and progesterone receptors (PR); endogenous in cells; host or cells: T47D/MMTV-5 (human breast carcinoma, stably transfected with pMAMneo-Luc reporter)
T3 sequence (P06401 1-933): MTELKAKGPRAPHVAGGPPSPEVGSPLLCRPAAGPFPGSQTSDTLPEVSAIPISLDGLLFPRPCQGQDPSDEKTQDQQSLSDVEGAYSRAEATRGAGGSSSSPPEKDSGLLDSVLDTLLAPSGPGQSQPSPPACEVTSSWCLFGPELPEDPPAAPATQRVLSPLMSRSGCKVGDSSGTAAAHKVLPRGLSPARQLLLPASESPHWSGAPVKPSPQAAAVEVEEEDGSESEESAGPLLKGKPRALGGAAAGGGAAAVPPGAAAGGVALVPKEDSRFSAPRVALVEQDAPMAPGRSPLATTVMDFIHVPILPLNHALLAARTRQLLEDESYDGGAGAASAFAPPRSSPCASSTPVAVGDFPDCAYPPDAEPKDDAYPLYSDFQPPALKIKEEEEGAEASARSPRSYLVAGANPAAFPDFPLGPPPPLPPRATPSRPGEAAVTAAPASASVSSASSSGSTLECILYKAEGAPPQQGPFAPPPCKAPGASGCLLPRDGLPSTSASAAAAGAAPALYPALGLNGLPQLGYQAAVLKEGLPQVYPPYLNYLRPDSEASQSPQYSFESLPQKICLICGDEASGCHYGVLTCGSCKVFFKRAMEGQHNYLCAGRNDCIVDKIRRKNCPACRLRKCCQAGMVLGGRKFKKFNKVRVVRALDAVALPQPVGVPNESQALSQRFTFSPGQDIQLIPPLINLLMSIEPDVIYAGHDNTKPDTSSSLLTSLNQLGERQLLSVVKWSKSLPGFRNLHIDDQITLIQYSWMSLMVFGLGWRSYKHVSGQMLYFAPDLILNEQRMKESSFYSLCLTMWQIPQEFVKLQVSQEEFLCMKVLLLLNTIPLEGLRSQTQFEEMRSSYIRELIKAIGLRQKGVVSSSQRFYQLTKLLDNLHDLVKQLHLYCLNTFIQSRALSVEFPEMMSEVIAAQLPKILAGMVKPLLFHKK
Protocol: as §1, §2

human recombinant GR = molecular target: T4, human recombinant GR (Homo sapiens, UniProt P04150); test: GR protein:protein interaction assay (DiscoveRx, CHO-K1, PGC1α); type: cell-based
T4 construct: β-galactosidase enzyme fragment (complementation partner); host or cells: CHO-K1
T4 sequence (P04150 1-777): T1 sequence (P04150 1-777)
Description: (§3) Protein:protein interaction assays were used to determine the ability of test compounds to act as antagonists of the glucocorticoid receptor and/or mineralocorticoid receptor. These assays utilize a commercial assay platform provided by DiscoveRx Corp. (Fremont, CA). DiscoveRx technology is based on β-galactosidase enzyme fragment complementation using a luminogenic substrate. Briefly, Chinese hamster ovary cells (CHO-K1) have been engineered to express either human recombinant GR or MR together with a steroid responsive coactivator protein (SRCP) called PGC1α (peroxisome proliferator activated receptor gamma coactivator lα). The assay measures the net outcome of GR or MR activation, i.e., nuclear translocation from the cytoplasm and interaction of the GR or MR with the coactivator PGC1α in the cell nucleus. The assay can be configured in both agonist and antagonist modes.
(§4) The cells (100 μl) were plated into 96 well plates and placed in a 37° C., 5% CO2 incubator for 24 hours. After removing the cells from the incubator, 5 μl of test compound or vehicle was added to each well, and the plates were incubated for 1 hour at 37° C., 5% CO2. […] The detection reagent was added, 55 μl per well, and the plates were incubated at room temperature in the dark without mixing. The plates were read for luminescence using an EnVision® plate reader (3 hour read).

human recombinant MR = molecular target: T5, human recombinant MR (Homo sapiens, UniProt P08235); test: MR protein:protein interaction assay (DiscoveRx, CHO-K1, PGC1α); type: cell-based
T5 construct: β-galactosidase enzyme fragment (complementation partner); host or cells: CHO-K1
T5 sequence (P08235 1-984): T2 sequence (P08235 1-984)
Description: as §3
as §4, with “EnVision® (Perkin Elmer, Walthan, MA)” for “EnVision®”

Compound | fatty liver compared to the controls [1] | Ki [2] | Ki [3] | activity in progesterone receptor reporter gene assay [4] | lipid droplets in livers (Oil Red O staining) ([1]; 60 mg/kg/day mixed in the food, versus vehicle control) | Ki (human recombinant GR) | Ki (human recombinant MR)
CC#C[C@]1(O)CC[C@H]2[C@@H]3CCC4=CC(=O)CCC4=C3[C@@H](c3ccc(N(C)C)cc3)C[C@@]21C [mifepristone, reference compound] | increased fatty liver compared to the controls | – | – | – | – | – | –
O=c1[nH]c(=O)c(Cc2cccc(C(F)(F)F)c2)c([C@H]2CC[C@H](c3ccccc3)CC2)[nH]1 [Compound 1, (E)-6-(4-phenylcyclohexyl)-5-(3-trifluoromethylbenzyl)-1H-pyrimidine-2,4-dione] | did not induce fatty liver | 0.024 µM | 0.148 µM | inactive | no or low level of lipid droplets | 0.118 µM | 0.125 µM
